Laboratory results published in patent US7642088B2, “Device for susceptibility testing of bacterial pathogens and vaccine strains in poultry” (Lohmann Animal Health GmbH & Co. KG, priority 2004, dated 2010).
Values after ≈ are worked out from the molar mass of the structure shown. Read-outs that look alike come from different tables or passages of the source.

Assays:
[1] = test system: Enterococcus faecalis ATCC 29212; conditions: taken from NCCLS, M31-A2, 2002; cited from earlier work
[2] = test system: Escherichia coli ATCC 25922; assay: MIC range and interpretive result on gram-negative reference strain; format: cell-based; conditions: for Interpretive result: MIC range against breakpoints LB + UB; for MIC range: data validated by MERLIN Diagnostika GmbH
Protocol: (§1) Determining the susceptibility with the microtiter plate 1 depends on the rehydration of antibiotics by the addition of a standardised bacterial suspension. The result is measured after 18-24 hours incubation at 35-37° C. photometrically with MICRONAUT Skan or another suitable photometer and analysed with MICRONAUT Software or visually read and interpreted.
(§2) Test Procedure 1. Gram Preparation: • Gram-positive bacteria appear blue, gram-negative bacteria red. It is recomended that the gram stain is determined according to standard protocol or the recommendations on the manufacturer's kit. 2. Inoculum Production • Prepare a test tube with 5 ml NaCl 0.9% pH 5.5 to 6.5. • Remove several individually located colonies of a pure culture which is 18-24 hours old from the blood agar (without additives). • Homogenise the colonies well in 5 ml NaCl 0.9% until the turbidity corresponds to a McFarland of 0.5. 3. Inoculation in Broth • 3.1 Mueller-Hinton broth or modified ISO-Sensitest broth. • For gram-negative bacteria, 50 μl of the bacterial suspension is pipetted into 11 ml Mueller-Hinton II broth or modified ISO-Sensitest broth and well homogenised. • For gram-positive bacteria, 100 μl of the bacterial suspension is pipetted into 11 ml Mueller-Hinton II broth or modified ISO-Sensitest broth and well homogenised. • 3.2H-Broth • For fastidious bacteria, 200 μl of the bacterial suspension is transferred into 11 ml preheated H-Broth and homogenised. 4. Inoculation (Broth-Microdilution) • Remove microtiter plate from the individual packaging max. 30 minutes before inoculation and dispose of the dessicant. • Label test plate. • Dispense the prepared suspension according to the plate layout into a 2-channel reservoir. • The inoculation of the microtiter plate is carried out manually with a multi-channel pipette, 100 μl per well. 5. Sealing and Incubation • 5.1 Mueller-Hinton II broth or modified ISO-Sensitest broth • After inoculating seal the test plates with an unperforated adhesive film or cover with an unused microtiter plate (max. 5 test plates stacked). • Incubate test plate 18-24 hours at 35-37° C. • 5.2H-Broth • After inoculating the test plates cover with an unused microtiter plate or with a perforated cover film. • Incubate test plate 22 to 24 hours at 35 to 37° C. in the incubator with CO2 gassing. 6. Reading • Remove adhesive film. • Wipe test plate from below. • Reading of test plate with photometer or visually. 7. Analysis • The bacterial growth is determined using a photometric measurement at a wave length of 620 nm or 690 nm—according to the broth used. • The result is analysed, interpreted and checked for its plausibility by means of MICRONAUT Software. The growth control must be overgrown (turbid), otherwise the test must be repeated. With visual readout the results should be recorded on a plate layout plan. The test result can be seen on the screen or on the findings report. 8. Interpretation of the Results
(§3) Breakpoint Interpretation • For antibiotics which are tested in four or fewer consecutive concentrations or in non-consecutive concentrations, interpreting categories are determined, namely susceptible, intermediate and resistant, on the basis of low and upper breakpoint MIC values (See attachment: Tables IIA and IIB, Tables IIIA, IIIB, IIIC and IIID and Table IV). The lower breakpoint (LB) is represented by the MIC value which prevents sufficient and visible bacterial growth, ie the bacterial isolate is susceptible to the antibiotic. […] Using MICRONAUT Software, MIC values can be automatically analysed and interpreted for a given bacterial isolate and antibiotic. […]

[3] = test system: Escherichia coli ATCC 25922; conditions: taken from NCCLS, M31-A2, 2002; cited from earlier work
[4] = test system: Enterococcus faecalis ATCC 29212; assay: MIC range and interpretive result on gram-positive reference strain; format: cell-based; conditions: for Interpretive result: MIC range against breakpoints LB + UB; for MIC range: data validated by MERLIN Diagnostika GmbH
Protocol: as §1, §2, §3

[5] = test system: Pseudomonas aeruginosa ATCC 27853; assay: MIC range and interpretive result on gram-negative reference strain; format: cell-based; conditions: for Interpretive result: MIC range against breakpoints LB + UB; for MIC range: data validated by MERLIN Diagnostika GmbH
Protocol: as §1, §2, §3

[6] = test system: Pseudomonas aeruginosa ATCC 27853; conditions: taken from NCCLS, M31-A2, 2002; cited from earlier work
[7] = test system: Staphylococcus aureus ATCC 29213; conditions: taken from NCCLS, M31-A2, 2002; cited from earlier work
[8] = test system: Staphylococcus aureus ATCC 29213; assay: MIC range and interpretive result on gram-positive reference strain; format: cell-based; conditions: for Interpretive result: MIC range against breakpoints LB + UB; for MIC range: data validated by MERLIN Diagnostika GmbH
Protocol: as §1, §2, §3

[9] = test system: S.Tm. Nal2/Rif9/Rtt (vaccine strain); assay: Broth microdilution MIC, resistance marker discrimination, vaccine strain S.Tm. Nal2/Rif9/Rtt; format: cell-based, Salmonella Typhimurium; conditions: chicken, validated at Lohmann Animal Health
Protocol: as §1
(§4) Test Procedure 1. Gram Preparation: • Gram-positive bacteria appear blue, gram-negative bacteria red. It is recomended that the gram stain is determined according to standard protocol or the recommendations on the manufacturer's kit. 2. […] Reading • Remove adhesive film. • Wipe test plate from below. • Reading of test plate with photometer or visually. […] Analysis • The bacterial growth is determined using a photometric measurement at a wave length of 620 nm or 690 nm—according to the broth used. • The result is analysed, interpreted and checked for its plausibility by means of MICRONAUT Software. […] With visual readout the results should be recorded on a plate layout plan. […]
(§5) Breakpoint Interpretation • For antibiotics which are tested in four or fewer consecutive concentrations or in non-consecutive concentrations, interpreting categories are determined, namely susceptible, intermediate and resistant, on the basis of low and upper breakpoint MIC values (See attachment: Tables IIA and IIB, Tables IIIA, IIIB, IIIC and IIID and Table IV). […]

[10] = test system: S.Tm. Moskau 415 (field strain); assay: Broth microdilution MIC, resistance marker discrimination, field strain S.Tm. Moskau 415; format: cell-based, Salmonella Typhimurium; conditions: chicken, validated at Lohmann Animal Health
Protocol: as §1, §4, §5

[11] = test system: S.E. Leipzig (field strain); assay: Broth microdilution MIC, resistance marker discrimination, field strain S.E. Leipzig; format: cell-based, Salmonella Enteritidis; conditions: chicken, validated at Lohmann Animal Health
Protocol: as §1
as §4, with “2. Inoculum Production • Prepare a test tube with 5 ml NaCl 0.9% pH 5.5 to 6.5. • Remove several individually located colonies of a pure culture which is 18-24 hours old from the blood agar (without additives). • Homogenise the colonies well in 5 ml NaCl 0.9% until the turbidity corresponds to a McFarland of 0.5. 3.” for “2.”
as §3, with “IV).” for “IV). The lower breakpoint (LB) is represented by the MIC value which prevents sufficient and visible bacterial growth, ie the bacterial isolate is susceptible to the antibiotic.”

[12] = test system: S.E. Sm24/Rif12/Ssq (vaccine strain); assay: Broth microdilution MIC, resistance marker discrimination, vaccine strain S.E. Sm24/Rif12/Ssq; format: cell-based, Salmonella Enteritidis; conditions: chicken, validated at Lohmann Animal Health
Protocol: as §1
as §4, with “2. Inoculum Production • Prepare a test tube with 5 ml NaCl 0.9% pH 5.5 to 6.5. • Remove several individually located colonies of a pure culture which is 18-24 hours old from the blood agar (without additives). • Homogenise the colonies well in 5 ml NaCl 0.9% until the turbidity corresponds to a McFarland of 0.5. 3.” for “2.”
as §3, with “IV).” for “IV). The lower breakpoint (LB) is represented by the MIC value which prevents sufficient and visible bacterial growth, ie the bacterial isolate is susceptible to the antibiotic.”

Compound	MIC range [1] [mg/L]	Interpretive result [2]	MIC range [3] [mg/L]	Interpretive result [4]	Interpretive result [5]	MIC range [7] [mg/L]	Interpretive result [8]	further results
CC1(C)S[C@@H]2[C@H](NC(=O)[C@H](N)c3ccccc3)C(=O)N2[C@H]1C(=O)O [Ampicillin]	0.5 to 2	S	2 to 8	S	–	–	–	–
CO/N=C(\C(=O)N[C@@H]1C(=O)N2C(C(=O)O)=C(CSC(=O)c3ccco3)CS[C@H]12)c1csc(N)n1 [Ceftiofur]	–	S	0.25 to 1	–	R	0.25 to 1	S	MIC range [6]: 16 to 64 mg/L
CCN1CCN(c2cc3c(cc2F)c(=O)c(C(=O)O)cn3C2CC2)CC1 [Enrofloxacin]	0.12 to 1	S	0.008 to 0.03	S/I	I/R	0.03 to 0.12	S	MIC range [6]: 1 to 4 mg/L
CC[C@H]1OC(=O)[C@H](C)[C@@H](O[C@H]2C[C@@](C)(OC)[C@@H](O)[C@H](C)O2)[C@H](C)[C@@H](O[C@@H]2O[C@H](C)C[C@H](N(C)C)[C@H]2O)[C@](C)(O)C[C@@H](C)C(=O)[C@H](C)[C@@H](O)[C@]1(C)O [Erythromycin]	1 to 4	–	–	I	–	0.12 to 1	S/I	MIC range [9]: ≦5 μg/ml; MIC range [10]: ≧20 μg/ml; MIC range [11]: ≧20 μg/ml; MIC range [12]: ≦5 μg/ml
CCC[C@@H]1C[C@@H](C(=O)N[C@@H]([C@H]2O[C@H](SC)[C@H](O)[C@@H](O)[C@H]2O)[C@@H](C)O)N(C)C1 [Lincomycin]	–	–	–	R	R	–	S/I	MIC range [5]: 32 mg/L (≈ 78.7 µM); MIC range [4]: 8 to 32 mg/L; MIC range [8]: 0.5 to 2 mg/L
Cc1onc(-c2ccccc2)c1C(=O)N[C@@H]1C(=O)N2[C@@H]1SC(C)(C)[C@@H]2C(=O)O [Oxacillin]	8 to 32	–	–	R	–	0.12 to 0.5	S	–
CC1(C)S[C@@H]2[C@H](NC(=O)Cc3ccccc3)C(=O)N2[C@H]1C(=O)O [Penicillin G]	1 to 4	–	–	S	–	0.25 to 2	R	–
CO[C@H]1/C=C/O[C@@]2(C)Oc3c(C)c(O)c4c(O)c(c(/C=N/N5CCN(C)CC5)c(O)c4c3C2=O)NC(=O)/C(C)=C\C=C\[C@H](C)[C@H](O)[C@@H](C)[C@@H](O)[C@@H](C)[C@H](OC(C)=O)[C@@H]1C [Rifampicin]	–	–	–	–	–	–	–	MIC range [9]: >50 mg/L; MIC range [10]: <50 mg/L; MIC range [11]: <50 mg/L; MIC range [12]: >50 mg/L
CN[C@@H]1[C@H](O)[C@H](NC)[C@H]2O[C@@]3(O)C(=O)C[C@@H](C)O[C@H]3O[C@@H]2[C@H]1O [Spectinomycin]	64 to 256	S/R	8 to 64	R	–	64 to 256	R	–
[H]/N=C(/N)N[C@H]1[C@H](O)[C@@H](O)[C@H](O[C@@H]2O[C@@H](C)[C@](O)(C=O)[C@H]2O[C@@H]2O[C@@H](CO)[C@H](O)[C@@H](O)[C@@H]2NC)[C@@H](N/C(N)=N\[H])[C@@H]1O [Streptomycin]	–	–	–	–	–	–	–	MIC range [11]: <200 mg/L; MIC range [12]: >200 mg/L
CN(C)[C@@H]1C(O)=C(C(N)=O)C(=O)[C@@]2(O)C(O)=C3C(=O)c4c(O)cccc4[C@@](C)(O)[C@H]3C[C@@H]12 [Tetracycline]	–	S	–	I/R	R	–	S	–
C=C[C@]1(C)C[C@@H](OC(=O)CSCCN(CC)CC)[C@]2(C)[C@H](C)CC[C@]3(CCC(=O)[C@H]32)[C@@H](C)[C@@H]1O [Tiamulin]	–	–	–	–	–	0.5 to 2.0	S	–
Colistin	–	S	–	–	S/I	–	R	MIC range [5]: 0.5 to 2 mg/L; MIC range [2]: ≦0.5 μg/ml; MIC range [8]: 64 mg/L
Gentamicin	4 to 16	S	0.25 to 1	S/I/R	S	0.12 to 1	S	MIC range [6]: 0.5 to 2 mg/L
Neomycin	–	S	–	R	–	–	S	MIC range [2]: 0.5 to 2 mg/L; MIC range [4]: 16 to 64 mg/L; MIC range [8]: 0.5 to 2 mg/L
